In PMC11125126, “Synthesis, Characterisation, and In Vitro Evaluation of Biocompatibility, Antibacterial and Antitumor Activity of Imidazolium Ionic Liquids” (Pharmaceutics, 2024):

Assays:
MCF7 cancer cells = assay: Direct cytotoxicity test of IL powders, Alamar blue assay; type: cell-based, human; settings: Homo sapiens, 24 h of incubation
Protocol: (§1) Cytotoxicity studies on IL powders were carried out using human dermal fibroblast (HDF) cells (Sigma-Aldrich) and a human breast cancer cell line (MCF7). In addition, ILs loaded in PVC polymer substrates were tested for their cytocompatibility and adhesion properties on the HDF. HDF cells were cultured in 75 cm^2 cell culture flask in Dulbecco’s Modified Eagle’s Medium (DMEM) supplemented with 20% Foetal Bovine Serum (FBS), 1% non-essential amino acid (NEAA), antibiotic solution (streptomycin 100 µg/mL and penicillin 100 U/mL, Sigma Aldrich) and 2 mM L-glutamine. MCF7 cells were grown in DMEM with 10% FBS and the same antibiotics as mentioned above. The cells were maintained in a culture at 37 °C, with 5% CO2 and 95% humidity to achieve a confluent layer. Control cells were cultured in a complete medium without any compounds in tissue culture plates. Before biological testing, the samples were sterilised using a UV light for 2 h.
(§2) A direct cytotoxicity test was used to assess the in vitro cytotoxicity of IL powders. IL powders with different alkyl chains were dissolved in DMEM media to obtain solutions at various concentrations (0.5–1–5 and 10 µg/mL) to determine the best formulation.
(§3) After 24 h of incubation of IL solutions (200 µL) with seeded cells under specific environmental conditions (T = 37 °C, HR = 95%, CO2 = 5%), cell viability was tested using the Alamar blue assay (AbD Serotec, Milan, Italy) following the manufacturer’s instructions.
(§4) In summary, each well received a 200 µL aliquot of Alamar Blue^TM diluted 1:10 in phenol red-free medium and was incubated for 4 h at 37 °C, 5% CO2. Following this, 100 µL of the solution was transferred to a 96-well plate for colorimetric analysis. Wells with no cells were included to account for any background interference from the redox indicator. Optical density was immediately measured using a spectrophotometer (Victor X3, Perkin Elmer, Waltham, MA, USA) at 560 and 595 nm wavelengths. The results were presented as a percentage of cell viability compared to that of the control (cells grown on tissue culture plates).
(§5) Here, the antitumor activity and cytotoxicity of the synthetised imidazolium-based ionic liquids have been determined for breast cancer cells (MCF-7) and healthy human fibroblast (HDF) cells. […] Table 5 reports the IC50 values in µg/mL and µM to make their comparison with the literature data easy.

HDF cells = assay: as above; type: cell-based, human; settings: Homo sapiens, 24 h of incubation
Protocol: as §1, §2, §3, §4, §5

With `CCCCCCCCCCn1cc[n+](C)c1.F[B-](F)(F)F` [C10mimBF4] the IC50 (MCF7 cancer cells; n = 3) was 7.39 µg/mL, the IC50 (MCF7 cancer cells; n = 3, mean ± SD) was 23.8 µM and the IC50 (HDF cells; n = 3) was 13.5 µM. For the same molecule, the IC50 (HDF cells; n = 3, mean ± SD) was 4.18 ± 0.03 µg/mL.
